The test system of one series is BTSC30M. Put plainly: alamarBlue cell viability, BTSC 30M. The format is cell-based, human. The note with it: Homo sapiens. Summed up: (§1)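 Patient-derived GBM brain tumour stem cells, dissociated spheres seeded at 1500 cells/96-well, or 3000 cells/96-well in one setup. Drug or DMSO vehicle added one day after plating. Viability read by alamarBlue after 72 hrs, triplicate wells.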

For a further series, the system named is BTSC68EF. Put plainly: alamarBlue cell viability, BTSC 68EF. In kind it is cell-based, human. The conditions noted are these: Homo sapiens, read-out: 68EF IC50 (μM). The procedure, abridged:
as §1

The next series has as its system BTSC73M. Kind of series: alamarBlue cell viability, BTSC 73M. The conditions noted are these: Homo sapiens. In kind it is cell-based, human. Summed up: as §1
A further series has as its system BTSCs. Put plainly: alamarBlue cytotoxicity across BTSC lines. The format is cell-based, human. The note with it: Homo sapiens; for EC50: read-out: EC50s across all 8 BTSCs evaluated; for IC50: read-out: IC50 values of the top four ranked compounds against BTSCs. The procedure:
First, the library was screened for biological activity against a set of three representative GBM BTSCs derived from GBM patients, including the very aggressive GBM BTSC lines, BTSC73M, BTSC30M, BTSC68EF. Dissociated BTSC spheres were seeded at 1500 cells/96-well and treated with drug compound or vehicle (DMSO) one day after plating. Cell viability following drug treatment was assessed after 72 hrs using the ALAMARBLUE™ assay (Invitrogen) according to the manufacturer's instructions. All culture experiments were performed in triplicate with a minimum of three wells per condition.
BTSC spheres were dissociated to single cells with the enzyme Accumax (Innovative Technologies), seeded at 1500 cells/96-well and treated with drug or vehicle (DMSO) one day after plating. […] BTSC spheres were dissociated to single cells as above and plated in 96 well plates in triplicate at 3000 cells/96-well. […] Cell viability following drug treatment was assessed three days later using the ALAMARBLUE™ assay (Invitrogen) according to the manufacturer's instructions. All culture experiments were performed in triplicate with a minimum of three wells per condition.

Series [1] has as its system normal human fetal astrocytes (HF 2003, HF 2006, HF 2009, HF 2013). Put plainly: toxicity in normal human fetal astrocytes. The format is cell-based. The conditions noted are these: concentrations of up to 5 μM. The procedure: Given the nM cytoxicity, these compounds were assayed for biological effects in healthy cells.
GBM BTSCs were cultured from a series of tumor specimens obtained following informed consent from adult GBM patients during their operative procedure as previously described (Kelly et al, Stem Cells 2009) and approved by the University of Calgary Ethics Review Board. Briefly, BTSC cultures were initiated in serum-free defined culture medium (SFM) and gave rise to nonadherent spheres after 7 to 21 days in culture. Primary tumor spheres were expanded for several passages and then cryopreserved in 10% DMSO (Sigma Aldrich) in serum-free defined medium until use in experiments. Human fetal neural stem cells were also cultured as previously described and induced to differentiate into astrocytes by addition of 10% fetal bovine serum and removal of EGF, FGF-2 and heparan sulfate.

The next series deals with pSTAT3 (Y705). Kind of series: Western blot of phosphorylated STAT3 in BTSCs. In kind it is cell-based, human. The note with it: for suppression of pSTAT3 (Y705): 1 μM. An excerpt:
Blots were stained with antibodies: phospho-Y705, phospho-S727, Bcl-xL, cyclin D1, PARP and Actin. Bands were visualized with the ECL PLUS™ Western Blotting Detection System and […]™ (Amersham). […] BTSC spheres were lysed in modified RIPA buffer supplemented with Complete Mini protease (Roche) and Halt phosphatase (Thermo Scientific) inhibitor cocktails. […] Blots were stained with the following antibodies: phospho-STAT3 Y705 (1:1000, Cell Signalling Technology), phospho-STAT3 S727 (1:1000, Cell Signalling Technology), STAT3 (1:1000, Santa Cruz Biotechnology), Bcl-xL (1:1000, Cell Signalling Technology), cyclin D1 (1:1000, Cell Signalling Technology) PARP (1:1000, Cell Signalling Technology) and Actin (1:2500, Santa Cruz Biotechnology). HRP conjugated secondary antibodies, goat anti-rabbit (Cell Signalling Technology) were used at 1:2000 and donkey anti-mouse, donkey anti-goat, and goat anti-rabbit, (Calbiochem) were used at 1:6000. Bands were visualized with the ECL Plus Western Blotting Detection System and Hyperfilm (Amersham).
On the technique in general: Immunoblotting shows a protein as a band on a membrane.

The target of a further series is T1, AKT1 (Homo sapiens, UniProt P31749).
T1 construct: purchased Reaction Biology Corporation
T1 sequence (P31749 whole entry): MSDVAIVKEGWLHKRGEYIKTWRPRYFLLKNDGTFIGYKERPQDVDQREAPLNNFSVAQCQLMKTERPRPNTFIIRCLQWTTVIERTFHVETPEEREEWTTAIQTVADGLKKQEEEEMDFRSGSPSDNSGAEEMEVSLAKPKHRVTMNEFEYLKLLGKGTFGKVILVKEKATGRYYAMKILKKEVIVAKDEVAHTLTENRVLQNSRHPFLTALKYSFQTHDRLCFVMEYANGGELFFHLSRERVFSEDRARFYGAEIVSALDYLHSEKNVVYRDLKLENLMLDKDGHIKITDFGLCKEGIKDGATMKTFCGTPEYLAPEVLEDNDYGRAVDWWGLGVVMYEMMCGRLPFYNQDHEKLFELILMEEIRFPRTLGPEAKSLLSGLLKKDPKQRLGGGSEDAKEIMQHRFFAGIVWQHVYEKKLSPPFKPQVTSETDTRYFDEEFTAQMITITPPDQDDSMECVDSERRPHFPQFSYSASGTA
Kind of series: HotSpot radiometric kinase assay, AKT1. The format is biochemical. The note with it: 5 uM compound, 10 μM ATP, duplicate (Data 1, Data 2); for remaining activity at 5 µM: read-out: % Enzyme activity relative to DMSO (control), AKT1.

In a further series the target is T2, c-Src (Homo sapiens, UniProt P12931).
T2 construct: purchased Reaction Biology Corporation
T2 sequence (P12931 whole entry): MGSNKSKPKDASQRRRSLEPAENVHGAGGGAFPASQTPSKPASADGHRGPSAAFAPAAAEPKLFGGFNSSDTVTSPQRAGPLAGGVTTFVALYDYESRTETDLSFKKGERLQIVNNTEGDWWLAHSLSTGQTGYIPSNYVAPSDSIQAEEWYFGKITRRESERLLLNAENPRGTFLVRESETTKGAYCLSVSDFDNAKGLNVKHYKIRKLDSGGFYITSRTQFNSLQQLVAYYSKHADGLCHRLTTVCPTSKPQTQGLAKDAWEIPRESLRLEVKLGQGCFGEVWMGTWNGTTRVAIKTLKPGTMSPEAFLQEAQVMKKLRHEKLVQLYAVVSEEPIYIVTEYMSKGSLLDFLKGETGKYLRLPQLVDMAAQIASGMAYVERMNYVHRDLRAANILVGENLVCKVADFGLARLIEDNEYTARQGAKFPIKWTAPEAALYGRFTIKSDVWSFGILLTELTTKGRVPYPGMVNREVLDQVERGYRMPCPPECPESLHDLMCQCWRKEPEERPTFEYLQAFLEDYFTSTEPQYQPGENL
Put plainly: HotSpot radiometric kinase assay, c-Src. The format is biochemical. The note with it: 5 uM compound, 10 μM ATP, duplicate (Data 1, Data 2); for remaining activity at 5 µM: read-out: % Enzyme activity relative to DMSO (control), c-Src. The procedure:
(§2) Briefly, this assay employs a radiometric detection system to measure kinase phosphoryl transfer activity.
(§3) Test compound was evaluated at a single dose of 5 μM in duplicate mode. […] Reactions were carried out at 10 μM ATP.
(§4) Preliminary screen against AKT, c-Src, ERK1, JaK1 and JaK2 was performed at Reaction Biology Corporation (www.reactionbiology.com, Malvern, Pa.) using the “HotSpot” assay platform. Specific kinase/substrate pairs along with their required cofactors were prepared in reaction buffer; 20 mM Hepes pH 7.5, 10 mM MgCl2, 1 mM EGTA, 0.02% Brij35, 0.02 mg/ml BSA, 0.1 mM Na3VO4, 2 mM DTT, 1% DMSO. The screen was completed in duplicate at a single concentration of 5 μM. The reaction well with the subject compound was treated with a mixture of ATP (Sigma, St. Louis Mo.) and ^33P ATP (Perkin Elmer, Waltham Mass.) to a final concentration of 10 μM. […] Reaction wells were kept at room temperature for 120 minutes, followed by spotting each of the reactions onto P81 ion exchange filter paper (Whatman Inc., Piscataway, N.J.). […] Background was subtracted using control reactions and the kinase activity data was expressed as the percent remaining kinase activity in test samples compared to vehicle (dimethyl sulfoxide) reactions. All IC50 values (table 3) and curve fitting were produced using Prism (GraphPad Software) (FIG. 5).

In a further series the target is T3, JAK1 (Homo sapiens, UniProt P23458).
T3 construct: purchased Reaction Biology Corporation
T3 sequence (P23458 whole entry): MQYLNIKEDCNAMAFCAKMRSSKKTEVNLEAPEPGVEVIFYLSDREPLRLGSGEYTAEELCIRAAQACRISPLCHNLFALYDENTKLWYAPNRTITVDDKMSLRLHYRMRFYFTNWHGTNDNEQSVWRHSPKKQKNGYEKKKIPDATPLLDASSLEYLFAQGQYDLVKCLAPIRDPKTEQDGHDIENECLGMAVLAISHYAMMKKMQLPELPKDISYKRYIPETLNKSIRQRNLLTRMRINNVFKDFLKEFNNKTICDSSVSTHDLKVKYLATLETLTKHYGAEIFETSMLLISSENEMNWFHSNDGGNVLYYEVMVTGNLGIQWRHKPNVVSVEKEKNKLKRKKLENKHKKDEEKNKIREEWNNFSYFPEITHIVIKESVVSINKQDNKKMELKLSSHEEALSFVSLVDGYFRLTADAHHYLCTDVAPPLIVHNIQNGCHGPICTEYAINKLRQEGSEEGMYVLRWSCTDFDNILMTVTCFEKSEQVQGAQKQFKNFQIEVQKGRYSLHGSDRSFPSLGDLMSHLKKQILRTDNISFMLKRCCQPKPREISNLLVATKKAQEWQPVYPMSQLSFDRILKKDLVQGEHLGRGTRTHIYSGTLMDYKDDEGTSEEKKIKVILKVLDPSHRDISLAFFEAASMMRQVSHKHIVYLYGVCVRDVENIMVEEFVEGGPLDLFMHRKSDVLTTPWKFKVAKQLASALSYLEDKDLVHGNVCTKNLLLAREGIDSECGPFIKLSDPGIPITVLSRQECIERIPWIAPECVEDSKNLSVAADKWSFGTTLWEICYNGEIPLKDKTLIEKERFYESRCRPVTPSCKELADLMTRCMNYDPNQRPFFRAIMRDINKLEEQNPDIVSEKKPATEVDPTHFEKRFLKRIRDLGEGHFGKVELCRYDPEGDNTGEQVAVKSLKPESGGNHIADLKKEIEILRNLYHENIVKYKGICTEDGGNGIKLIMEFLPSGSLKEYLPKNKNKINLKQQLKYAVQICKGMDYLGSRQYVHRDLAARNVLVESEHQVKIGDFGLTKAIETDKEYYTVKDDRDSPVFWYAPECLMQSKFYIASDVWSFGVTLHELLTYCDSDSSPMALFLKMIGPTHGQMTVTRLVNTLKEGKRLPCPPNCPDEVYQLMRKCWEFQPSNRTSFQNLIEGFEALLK
Put plainly: HotSpot radiometric kinase assay, JAK1. In kind it is biochemical. The note with it: 5 uM compound, 10 μM ATP, duplicate (Data 1, Data 2); for remaining activity at 5 µM: read-out: % Enzyme activity relative to DMSO (control), JAK1. The procedure: as §2, §3, §4

The subject of a further series is Prostate (DU145). Put plainly: IC50 in prostate cancer cells. In kind it is cell-based. The note with it: Homo sapiens, DU-145; Table 6.
Series [2] deals with leukemia cancer cells (AML-2). Put plainly: IC50 in leukemia cancer cells. The format is cell-based. The note with it: Table 6.
The mark [3] stands for this setting: read-out: IC50 (nM) in BTSC 30M.
Where [4] appears, read: remaining activity, listed as SH-05-07.

“Also recorded” adds a separate entry of the source. Like-named read-outs stand apart in the source and are kept apart here.

Consider `CN(CC(=O)N(Cc1ccc(C2CCCCC2)cc1)c1ccc(C(=O)O)cc1)S(=O)(=O)c1c(F)c(F)c(F)c(F)c1F` [Compound 31, 4-(N-(4-cyclohexylbenzyl)-2-(2,3,4,5,6-pentafluoro-N-methylphenylsulfonamido)acetamido)benzoic acid], for which the IC50 (usually the midpoint of a concentration-inhibition curve) is 0.432 µM with BTSC30M (read-out: 30M IC50 (μM), Table 4 library screen, alamarBlue); 0.432 ± 0.022 µM in the series with BTSC30M (setting [3]); 0.432 ± 0.022 µM in the series on BTSC30M (read-out: IC50 (μM) 30M, Table 2, BTSC 30M, alamarBlue, 72 hrs); 0.5 µM with BTSC30M (read-out: IC50 BTSC 30M, Table 6, in parallel with other cancer lines); 0.531 µM in the series on BTSC68EF; 1.03 ± 0.031 µM in the series on BTSC73M (Table 2, BTSC 73M, alamarBlue, 72 hrs, read-out: IC50 (μM) 73M). Also, the concentration for half-maximal inhibition (IC50) in the series with BTSC73M (Table 4 library screen, alamarBlue, read-out: 73M IC50) was 1.03 µM; with BTSCs it was 0.1 to 3.8 µM; with Prostate (DU145), 11.3 µM; in [2] it was below 1 µM. Further, the EC50 with BTSCs was 0.066 to 1.15 µM. Moreover, the “toxicity in normal human cells” value in series [1] was “minimal toxicity; also recorded: no toxicity”. Also, the pSTAT3 inhibition potency entry with pSTAT3 (Y705) (0, 0.1, 0.5, 1.0 and 5.0 μM, Western blot) is “concentration-dependant decreases in pSTAT3 levels”. Further, in the series with pSTAT3 (Y705) (500 nM, Western blot, BTSCs), the pSTAT3 signalling entry is on record as “completely silenced pSTAT3 signalling”. Besides, in the series on pSTAT3 (Y705) (Western blot, BTSCs), the “suppression of pSTAT3 (Y705)” value is listed as “most suppression of pSTAT3 (Y705)”. Also, the “pSTAT3 suppression, comparative Western blot” value with pSTAT3 (Y705) (BTSC 73M, 1 μM inhibitor) is reported as “equipotent pSTAT3 suppression”. For the same molecule, the figures for the remaining activity at 5 µM at AKT1, on c-Src and at JAK1 were 92.1%, 50.8% and 101%, respectively.
As to `CN(CC(=O)N(Cc1ccc(C2CCCCC2)cc1)c1ccc(C(=O)NO)cc1)S(=O)(=O)c1c(F)c(F)c(F)c(F)c1F` [Compound 32, 4-(N-(4-cyclohexylbenzyl)-2-(2,3,4,5,6-pentafluoro-N-methylphenylsulfonamido)acetamido)-N-hydroxybenzamide], the IC50 with BTSC30M (read-out: 30M IC50 (μM)) is 1.14 µM; in the series on BTSC30M (setting [3]), 1.136 ± 0.009 µM; with BTSC30M (read-out: IC50 BTSC 30M), 0.971 µM; in the series with BTSC68EF it was around 1.01 µM; in the series on BTSC73M (read-out: 73M IC50 (μM)) it was 1.52 µM; with BTSCs it was 0.1 to 3.8 µM. Besides, the concentration for half-maximal inhibition (IC50) in the series with Prostate (DU145) is 15.9 µM; in [2], below 1 µM. For the same molecule, the EC50 in the series with BTSCs was in the range of 0.066 to 1.15 µM. In addition, the “toxicity in normal human cells” value in series [1] is “minimal toxicity”. Moreover, the “suppression of pSTAT3 (Y705)” value with pSTAT3 (Y705) (Western blot, BTSCs) is “most suppression of pSTAT3 (Y705)”. The remaining activity at 5 µM is 94.6% at AKT1, 58.3% at c-Src and 101% at JAK1. Also, the “% Enzyme activity relative to DMSO (control), AKT1” value on AKT1 (setting [4]) is reported as 92.09%. Also, the “% Enzyme activity relative to DMSO (control), c-Src” value on c-Src (setting [4]) is reported as 54.21%. Besides, the “% Enzyme activity relative to DMSO (control), JAK1” value on JAK1 (setting [4]) turned out to be 97.99%.

The record behind these values is US9650399B2, “Salicylic acid derivatives, pharmaceutically acceptable salt thereof, composition thereof and method of use thereof” (The Governing Council of the University of Toronto, priority 2012, dated 2017).
